Assay results as given in US20080319065A1, “Systemic and Intrathecal Effects of a Novel Series of Phospholipase A2 Inhibitors on Hyperalgesia and Spinal Pge2 Release” (The Regents of the University of California, priority 2005, published 2008).

Tested on: murine RAW 264.7 macrophage-like cell line
Experiment: Long-term LPS stimulation, PGE2 release
Type: cell-based
Method: Several 2-oxoamides were tested in the long-term lipopolysaccharide (LPS) stimulation pathway in the murine RAW 264.7 macrophage-like cell line. (Raschke, et al., Cell, 1978, 15, 261-267). This pathway requires GIVA PLA2 activity and results in the extracellular release of many eicosanoid compounds including the prostaglandin PGE2. (Gijon, et al., leukoc. Biol., 1999, 65, 330-336). […] In the low μM range, AX041 and AX073 reduced PGE2 release by roughly 40% (FIG. 1(D)). At 1 μM and 5 μM concentrations, small activations were often seen. The in vitro and cellular results together are consistent with the known roles of GVIA PLA2 given that AX010, a selective GVIA inhibitor, had no cellular effect. […] Inhibitors selective for GIVA PLA2 or dual specificity inhibitors reduce PGE2 levels, also consistent with the known role of GIVA PLA2 in PGE2 production.

CCC(=O)C(=O)NCCCC(=O)OC [AX010]
inhibition of PGE2 release, in words: did not inhibit PGE2 release
